Results: US11472791B2 (Incyte Corporation, priority 2019, dated 2022)

molecular target: CDK2/Cyclin E1 (Homo sapiens (Human), UniProt P24941); assay: CDK2/Cyclin E1 HTRF enzyme activity assay; format: biochemical; conditions: 1 mM ATP
Method: Assays are conducted in white 384-well polystyrene plates in a final reaction volume of 8 μL. […] HTRF signals are read after 1 hour at room temperature on a PHERAstar FS plate reader (BMG Labtech). Data is analyzed with IDBS XLFit and GraphPad Prism 5.0 software using a three or four parameter dose response curve to determine IC50 for each compound.

IC50, < 50 nM:
COC[C@@H]1CCN1CCCS(=O)(=O)N1CCC(Nc2ncc(C(F)(F)F)c(-c3cnn(CC(C)(C)O)c3)n2)CC1 [Example 221, (S)-1-(4-(2-((1-((3-(2-(Methoxymethyl)azetidin-1-yl)propyl)sulfonyl)piperidin-4-yl)amino)-5-(trifluoromethyl)pyrimidin-4-yl)-1H-pyrazol-1-yl)-2-methylpropan-2-ol]
CC(C)(O)Cn1cc(-c2nc(NC3CCN(S(=O)(=O)CCCN4C[C@@H]5C[C@H]4CO5)CC3)ncc2C(F)(F)F)cn1 [Example 222, 1-(4-(2-((1-((3-((1S,4S)-2-Oxa-5-azabicyclo[2.2.1]heptan-5-yl)propyl)sulfonyl)piperidin-4-yl)amino)-5-(trifluoromethyl)pyrimidin-4-yl)-1H-pyrazol-1-yl)-2-methylpropan-2-ol]
CC(C)(O)Cn1cc(-c2nc(NC3CCN(S(=O)(=O)CCCN4CC[C@@](C)(O)C4)CC3)ncc2C(F)(F)F)cn1 [Example 223, (R)-1-(3-((4-((4-(1-(2-Hydroxy-2-methylpropyl)-1H-pyrazol-4-yl)-5-(trifluoromethyl)pyrimidin-2-yl)amino)piperidin-1-yl)sulfonyl)propyl)-3-methylpyrrolidin-3-ol]
CC(C)(O)Cn1cc(-c2nc(NC3CCN(S(=O)(=O)CCCN4CC[C@@H](O)C4)CC3)ncc2C(F)(F)F)cn1 [Example 224, (R)-1-(3-((4-((4-(1-(2-Hydroxy-2-methylpropyl)-1H-pyrazol-4-yl)-5-(trifluoromethyl)pyrimidin-2-yl)amino)piperidin-1-yl)sulfonyl)propyl)pyrrolidin-3-ol]
CC(C)(O)Cn1cc(-c2nc(NC3CCN(S(=O)(=O)CCCN4CC(O)C4)CC3)ncc2C(F)(F)F)cn1 [Example 225, 1-(3-((4-((4-(1-(2-Hydroxy-2-methylpropyl)-1H-pyrazol-4-yl)-5-(trifluoromethyl)pyrimidin-2-yl)amino)piperidin-1-yl)sulfonyl)propyl)azetidin-3-ol]
CC(C)(O)Cn1cc(-c2nc(NC3CCN(S(=O)(=O)CCCNC4CC4)CC3)ncc2C(F)(F)F)cn1 [Example 226, 1-(4-(2-((1-((3-(Cyclopropylamino)propyl)sulfonyl)piperidin-4-yl)amino)-5-(trifluoromethyl)pyrimidin-4-yl)-1H-pyrazol-1-yl)-2-methylpropan-2-ol]
CC(C)(O)Cn1cc(-c2nc(NC3CCN(S(=O)(=O)CCO)CC3)ncc2C(F)(F)F)cn1 [Example 227, 1-(4-(2-((1-((2-Hydroxyethyl)sulfonyl)piperidin-4-yl)amino)-5-(trifluoromethyl)pyrimidin-4-yl)-1H-pyrazol-1-yl)-2-methylpropan-2-ol]
Cc1cc(CN2CCNCC2)ccc1-n1cc(-c2nc(NC3CCN(S(=O)(=O)c4cn(C)cn4)CC3)ncc2C(F)(F)F)cn1 [Example 228, N-(1-((1-Methyl-1H-imidazol-4-yl)sulfonyl)piperidin-4-yl)-4-(1-(2-methyl-4-(piperazin-1-ylmethyl)phenyl)-1H-pyrazol-4-yl)-5-(trifluoromethyl)pyrimidin-2-amine]
Cc1cc(CN2CCN(C)[C@@H](CO)C2)ccc1-n1cc(-c2nc(NC3CCN(S(=O)(=O)c4cn(C)cn4)CC3)ncc2C(F)(F)F)cn1 [Example 229, (R)-(1-Methyl-4-(3-methyl-4-(4-(2-((1-((1-methyl-1H-imidazol-4-yl)sulfonyl)piperidin-4-yl)amino)-5-(trifluoromethyl)pyrimidin-4-yl)-1H-pyrazol-1-yl)benzyl)piperazin-2-yl)methanol]
Cc1cc(CN2CCN(C)[C@@H](CC#N)C2)ccc1-n1cc(-c2nc(NC3CCN(S(=O)(=O)c4cn(C)cn4)CC3)ncc2C(F)(F)F)cn1 [Example 230, (S)-2-(1-Methyl-4-(3-methyl-4-(4-(2-((1-((1-methyl-1H-imidazol-4-yl)sulfonyl)piperidin-4-yl)amino)-5-(trifluoromethyl)pyrimidin-4-yl)-1H-pyrazol-1-yl)benzyl)piperazin-2-yl)acetonitrile]
Cc1cc(CN2CCN(C)CC2)ccc1-n1cc(-c2nc(NC3CCN(S(C)(=O)=O)CC3)ncc2C(F)(F)F)cn1 [Example 231, 4-(1-(2-Methyl-4-((4-methylpiperazin-1-yl)methyl)phenyl)-1H-pyrazol-4-yl)-N-(1-(methylsulfonyl)piperidin-4-yl)-5-(trifluoromethyl)pyrimidin-2-amine]
CCN1CCN(Cc2ccc(-n3cc(-c4nc(NC5CCN(S(C)(=O)=O)CC5)ncc4C(F)(F)F)cn3)c(C)c2)CC1 [Example 232, 4-(1-(4-((4-Ethylpiperazin-1-yl)methyl)-2-methylphenyl)-1H-pyrazol-4-yl)-N-(1-(methylsulfonyl)piperidin-4-yl)-5-(trifluoromethyl)pyrimidin-2-amine]
CCS(=O)(=O)N1CCC(Nc2ncc(C(F)(F)F)c(-c3cnn(-c4ccc(CN5CCN(C)CC5)cc4C)c3)n2)CC1 [Example 233, N-(1-(Ethylsulfonyl)piperidin-4-yl)-4-(1-(2-methyl-4-((4-methylpiperazin-1-yl)methyl)phenyl)-1H-pyrazol-4-yl)-5-(trifluoromethyl)pyrimidin-2-amine]
Cc1cc(CN2CCN(C)CC2)ccc1-n1cc(-c2nc(NC3CCN(S(=O)(=O)C4CC4)CC3)ncc2C(F)(F)F)cn1 [Example 234, N-(1-(Cyclopropylsulfonyl)piperidin-4-yl)-4-(1-(2-methyl-4-((4-methylpiperazin-1-yl)methyl)phenyl)-1H-pyrazol-4-yl)-5-(trifluoromethyl)pyrimidin-2-amine]
CCN1CCN(Cc2ccc(-n3cc(-c4nc(NC5CCN(S(=O)(=O)c6cn(C)cn6)CC5)ncc4C(F)(F)F)cn3)c(C)c2)CC1 [Example 235, 4-(1-(4-((4-Ethylpiperazin-1-yl)methyl)-2-methylphenyl)-1H-pyrazol-4-yl)-N-(1-((1-methyl-1H-imidazol-4-yl)sulfonyl)piperidin-4-yl)-5-(trifluoromethyl)pyrimidin-2-amine]
Cc1cc(CN2CCN(CC3CC3)CC2)ccc1-n1cc(-c2nc(NC3CCN(S(=O)(=O)c4cn(C)cn4)CC3)ncc2C(F)(F)F)cn1 [Example 236, 4-(1-(4-((4-(Cyclopropylmethyl)piperazin-1-yl)methyl)-2-methylphenyl)-1H-pyrazol-4-yl)-N-(1-((1-methyl-1H-imidazol-4-yl)sulfonyl)piperidin-4-yl)-5-(trifluoromethyl)pyrimidin-2-amine]
Cc1cc(CN2CCN(C)C(=O)C2)ccc1-n1cc(-c2nc(NC3CCN(S(=O)(=O)c4cn(C)cn4)CC3)ncc2C(F)(F)F)cn1 [Example 237, 1-Methyl-4-(3-methyl-4-(4-(2-((1-((1-methyl-1H-imidazol-4-yl)sulfonyl)piperidin-4-yl)amino)-5-(trifluoromethyl)pyrimidin-4-yl)-1H-pyrazol-1-yl)benzyl)piperazin-2-one]
CCN1CCN(Cc2ccc(-n3cc(-c4nc(NC5CCN(S(C)(=O)=O)CC5)ncc4C#N)cn3)c(Cl)c2)CC1 [Example 238, 4-(1-(2-Chloro-4-((4-ethylpiperazin-1-yl)methyl)phenyl)-1H-pyrazol-4-yl)-2-((1-(methylsulfonyl)piperidin-4-yl)amino)pyrimidine-5-carbonitrile]
CCS(=O)(=O)N1CCC(Nc2ncc(C#N)c(-c3cnn(-c4ccc(CN5CCN(C)CC5)cc4Cl)c3)n2)CC1 [Example 239, 4-(1-(2-chloro-4-((4-methylpiperazin-1-yl)methyl)phenyl)-1H-pyrazol-4-yl)-2-((1-(ethylsulfonyl)piperidin-4-yl)amino)pyrimidine-5-carbonitrile]
CN1CCN(Cc2ccc(-n3cc(-c4nc(NC5CCN(S(C)(=O)=O)CC5)ncc4C#N)cn3)c(Cl)c2)CC1=O [Example 240, 4-(1-(2-Chloro-4-((4-methyl-3-oxopiperazin-1-yl)methyl)phenyl)-1H-pyrazol-4-yl)-2-((1-(methylsulfonyl)piperidin-4-yl)amino)pyrimidine-5-carbonitrile]
CCN1CCN(Cc2ccc(-n3cc(-c4nc(NC5CCN(S(=O)(=O)c6cn(C)cn6)CC5)ncc4C#N)cn3)c(Cl)c2)CC1 [Example 241, 4-(1-(2-Chloro-4-((4-ethylpiperazin-1-yl)methyl)phenyl)-1H-pyrazol-4-yl)-2-((1-((1-methyl-1H-imidazol-4-yl)sulfonyl)piperidin-4-yl)amino)pyrimidine-5-carbonitrile]
Cc1cc(CN2CCN(C)CC2)ccc1-n1cc(-c2nc(NC3CCN(S(=O)(=O)C4CC4)CC3)ncc2C#N)cn1 [Example 242, 2-((1-(Cyclopropylsulfonyl)piperidin-4-yl)amino)-4-(1-(2-methyl-4-((4-methylpiperazin-1-yl)methyl)phenyl)-1H-pyrazol-4-yl)pyrimidine-5-carbonitrile]
Cc1cc(CN2CCN(C)CC2)ccc1-n1cc(-c2nc(NC3CCN(S(=O)(=O)c4cn(C)cn4)CC3)ncc2C#N)cn1 [Example 243, 2-((1-((1-Methyl-1H-imidazol-4-yl)sulfonyl)piperidin-4-yl)amino)-4-(1-(2-methyl-4-((4-methylpiperazin-1-yl)methyl)phenyl)-1H-pyrazol-4-yl)pyrimidine-5-carbonitrile]
CN1CCN(Cc2ccc(-n3cc(-c4nc(NC5CCN(S(=O)(=O)c6cn(C)cn6)CC5)ncc4Cl)cn3)c(C#N)c2)CC1 [Example 244, 2-(4-(5-Chloro-2-((1-((1-methyl-1H-imidazol-4-yl)sulfonyl)piperidin-4-yl)amino)pyrimidin-4-yl)-1H-pyrazol-1-yl)-5-((4-methylpiperazin-1-yl)methyl)benzonitrile]
CCN1CCN(Cc2ccc(-n3cc(-c4nc(NC5CCN(S(=O)(=O)c6cn(C)cn6)CC5)ncc4Cl)cn3)c(C)c2)CC1 [Example 245, 5-Chloro-4-(1-(4-((4-ethylpiperazin-1-yl)methyl)-2-methylphenyl)-1H-pyrazol-4-yl)-N-(1-((1-methyl-1H-imidazol-4-yl)sulfonyl)piperidin-4-yl)pyrimidin-2-amine]
